The target of test [1] is T1, complement C5a receptor 1 (C5aR1) (Homo sapiens, UniProt P21730).
T1 construct: β-galactosidase fragment (PathHunter enzyme complementation); host or cells: CHO-K1 (PathHunter CHO-K1 C5aR1 β-arrestin cell line)
T1 sequence (P21730 1-350): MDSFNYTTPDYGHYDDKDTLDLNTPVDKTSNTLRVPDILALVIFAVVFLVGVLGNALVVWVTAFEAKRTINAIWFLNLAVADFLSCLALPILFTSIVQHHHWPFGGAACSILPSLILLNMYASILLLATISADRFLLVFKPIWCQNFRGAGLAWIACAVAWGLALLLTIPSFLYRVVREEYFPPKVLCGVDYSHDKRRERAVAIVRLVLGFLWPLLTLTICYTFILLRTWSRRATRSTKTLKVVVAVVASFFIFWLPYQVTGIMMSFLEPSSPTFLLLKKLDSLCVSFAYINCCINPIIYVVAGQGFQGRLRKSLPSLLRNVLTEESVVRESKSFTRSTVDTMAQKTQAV
Nature of the test: β-arrestin recruitment via C5aR1 activation in live CHO-K1 cells (PathHunter), agonist mode. Format: cell-based. The procedure, abridged: (§1)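 β-arrestin recruitment to C5aR1 in CHO-K1 cells is detected by enzyme-fragment complementation. Antagonism is measured against recombinant hC5a at its EC90; agonism is measured with compound alone. Potencies are grouped into IC50 categories.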
A general note: Recruitment of arrestin is a read-out of receptor activation apart from second messengers.

Test [2] concerns the target T1, complement C5a receptor 1 (C5aR1). Nature of the test: β-arrestin recruitment via C5aR1 activation in live CHO-K1 cells (PathHunter), antagonist mode. In kind it is cell-based. Particulars: antagonist mode; recombinant hC5a (EC90) as competing natural agonist; live CHO-K1 cells; read-out: [Antagonist] B-arrestin2 recruitment: Average IC50; call rule not given here. In a few lines:
as §1

Consider `COc1nccnc1Cn1c(=O)c(C2CCN(c3c(C)cccc3F)CC2)cc2nccnc21` [compound 5, 7-(1-(2-Fluoro-6-methylphenyl)piperidin-4-yl)-5-((3-methoxypyrazin-2-yl)methyl)pyrido[2,3-b]pyrazin-6(5H)-one], for which the “[Agonist] B-arrestin2 recruitment: Average EC50 (nM)” value (“[Agonist] B-arrestin2 recruitment” for short) in test [1] is given as “Non-Active”. Further, the IC50 in test [2] lay in the range of 0.5 to 5 µM.

In the case of `Cc1cccc(F)c1N1CCC(c2cc3nccnc3n(Cc3nccnc3OCC(F)(F)F)c2=O)CC1` [compound 6, 7-(1-(2-Fluoro-6-methylphenyl)piperidin-4-yl)-5-((3-(2,2,2-trifluoroethoxy)pyrazin-2-yl)methyl)pyrido[2,3-b]pyrazin-6(5H)-one], the “[Agonist] B-arrestin2 recruitment” value in test [1] is recorded as “Non-Active”. Also, the IC50 in test [2] was less than 0.5 µM.

On to `Cc1c(C2CCN(c3ccccc3C(F)(F)F)CC2)c(=O)n(Cc2ccccc2F)c2nccnc12` [compound 7, 5-(2-Fluorobenzyl)-8-methyl-7-(1-(2-(trifluoromethyl)phenyl)piperidin-4-yl)pyrido[2,3-b]pyrazin-6(5H)-one], for which the “[Agonist] B-arrestin2 recruitment” value in test [1] was “Non-Active”. Further, the IC50 in test [2] is less than 0.5 µM.

In the case of `Cc1nccnc1N1CCC(c2cc3nccnc3n(Cc3ccccc3C(F)(F)F)c2=O)CC1` [compound 8, 7-(1-(3-Methylpyrazin-2-yl)piperidin-4-yl)-5-(2-(trifluoromethyl)benzyl)pyrido[2,3-b]pyrazin-6(5H)-one], in test [1], the “[Agonist] B-arrestin2 recruitment” value was “Non-Active”. For the same compound, the half-maximal inhibitory concentration (IC50) in test [2] lay within 5 to 100 µM.

For `COc1nccnc1N1CCC(c2cc3nccnc3n(Cc3ccccc3C(F)(F)F)c2=O)CC1` [compound 9, 7-(1-(3-Methoxypyrazin-2-yl)piperidin-4-yl)-5-(2-(trifluoromethyl)benzyl)pyrido[2,3-b]pyrazin-6(5H)-one], in test [1], the “[Agonist] B-arrestin2 recruitment” value is recorded as “Non-Active”. For the same compound, the IC50 in test [2] lay within 5 to 100 µM.

Consider `O=c1c(C2CCN(c3ccccc3C(F)(F)F)CC2)cc2nccnc2n1Cc1ccccc1F` [compound 10, 5-(2-fluorobenzyl)-7-(1-(2-(trifluoromethyl)phenyl)piperidin-4-yl)pyrido[2,3-b]pyrazin-6(5H)-one], for which the “[Agonist] B-arrestin2 recruitment” value in test [1] was “Non-Active”. For the same compound, the IC50 in test [2] is less than 0.5 µM.

As to `Cc1c(C2CCN(c3cccnc3C(F)(F)F)CC2)c(=O)n(Cc2ccccc2F)c2nccnc12` [compound 11, 5-(2-Fluorobenzyl)-8-methyl-7-(1-(2-(trifluoromethyl)pyridin-3-yl)piperidin-4-yl)pyrido[2,3-b]pyrazin-6(5H)-one], the “[Agonist] B-arrestin2 recruitment” value in test [1] was “Non-Active”. For the same compound, the IC50 in test [2] was more than 100 µM.

Turning to `Cc1cccc(F)c1N1CCC(c2cc3nccnc3n(Cc3nccnc3C(F)(F)F)c2=O)CC1` [compound 12, 7-(1-(2-Fluoro-6-methylphenyl)piperidin-4-yl)-5-((3-(trifluoromethyl)pyrazin-2-yl)methyl)pyrido[2,3-b]pyrazin-6(5H)-one], the “[Agonist] B-arrestin2 recruitment” value in test [1] is listed as “Non-Active”. Further, the 50% inhibitory concentration (IC50) in test [2] is less than 0.5 µM.

On to `Cc1cccc(F)c1N1CCC(c2cc3nccnc3n(Cc3cccnc3C(F)(F)F)c2=O)CC1` [compound 13, 7-(1-(2-Fluoro-6-methylphenyl)piperidin-4-yl)-5-((2-(trifluoromethyl)pyridin-3-yl)methyl)pyrido[2,3-b]pyrazin-6(5H)-one], for which, in test [1], the “[Agonist] B-arrestin2 recruitment” value is “Non-Active”. In test [2], the IC50 is less than 0.5 µM.

For the compound `Cc1cccc(F)c1N1CCC(c2cc3nccnc3n(Cc3ccc(C(F)(F)F)nc3)c2=O)CC1` [compound 14, 7-(1-(2-Fluoro-6-methylphenyl)piperidin-4-yl)-5-((6-(trifluoromethyl)pyridin-3-yl)methyl)pyrido[2,3-b]pyrazin-6(5H)-one], the “[Agonist] B-arrestin2 recruitment” value in test [1] was “Non-Active”. Besides, in test [2], the half-maximal inhibitory concentration (IC50) is more than 100 µM.

In the case of `Cc1cccc(F)c1N1CCC(c2cc3nccnc3n(Cc3ccc(C(F)(F)F)cn3)c2=O)CC1` [compound 15, 7-(1-(2-Fluoro-6-methylphenyl)piperidin-4-yl)-5-((5-(trifluoromethyl)pyridin-2-yl)methyl)pyrido[2,3-b]pyrazin-6(5H)-one], the “[Agonist] B-arrestin2 recruitment” value in test [1] is “Non-Active”. Moreover, in test [2], the IC50 is more than 100 µM.

For `Cc1cccc(F)c1N1CCC(c2cc3nccnc3n(Cc3cnccc3C(F)(F)F)c2=O)CC1` [compound 16, 7-(1-(2-Fluoro-6-methylphenyl)piperidin-4-yl)-5-((4-(trifluoromethyl)pyridin-3-yl)methyl) pyrido[2,3-b]pyrazin-6(5H)-one], the “[Agonist] B-arrestin2 recruitment” value in test [1] is on record as “Non-Active”. In addition, the half-inhibitory concentration (IC50) in test [2] was less than 0.5 µM.

Turning to `Cc1cccc(F)c1N1CCC(c2cc3nccnc3n(Cc3ccncc3C(F)(F)F)c2=O)CC1` [compound 17, 7-(1-(2-Fluoro-6-methylphenyl)piperidin-4-yl)-5-((3-(trifluoromethyl)pyridin-4-yl)methyl) pyrido[2,3-b]pyrazin-6(5H)-one], the “[Agonist] B-arrestin2 recruitment” value in test [1] is given as “Non-Active”. The IC50 in test [2] fell in the range of 0.5 to 5 µM.

`O=c1c(C2CCN(c3cccnc3C(F)(F)F)CC2)cc2nccnc2n1Cc1ccccc1F` [compound 18, 5-(2-Fluorobenzyl)-7-(1-(2-(trifluoromethyl)pyridin-3-yl)piperidin-4-yl)pyrido[2,3-b]pyrazin-6(5H)-one]: the “[Agonist] B-arrestin2 recruitment” value in test [1] is on record as “Non-Active”. Further, the IC50 in test [2] is more than 100 µM.

Take `Cc1cccc(F)c1N1CCC(c2cc3nccnc3n(Cc3nccnc3C)c2=O)CC1` [compound 20, 7-(1-(2-Fluoro-6-methylphenyl)piperidin-4-yl)-5-((3-methylpyrazin-2-yl)methyl)pyrido[2,3-b]pyrazin-6(5H)-one]: the “[Agonist] B-arrestin2 recruitment” value in test [1] was “Non-Active”. Moreover, in test [2], the IC50 lay within 0.5 to 5 µM.

Regarding `Cc1cccc(F)c1N1CCC(c2cc3nccnc3n(Cc3ncccc3C(F)(F)F)c2=O)CC1` [compound 21, 7-(1-(2-Fluoro-6-methylphenyl)piperidin-4-yl)-5-((3-(trifluoromethyl)pyridin-2-yl)methyl)pyrido[2,3-b]pyrazin-6(5H)-one], the “[Agonist] B-arrestin2 recruitment” value in test [1] is given as “Non-Active”. Also, the IC50 in test [2] was less than 0.5 µM.

On to `Cc1cccc(F)c1N1CCC(c2c(C)c3nccnc3n(Cc3nccnc3C(F)(F)F)c2=O)CC1` [compound 22, 7-(1-(2-Fluoro-6-methylphenyl)piperidin-4-yl)-8-methyl-5-((3-(trifluoromethyl)pyrazin-2-yl)methyl)pyrido[2,3-b]pyrazin-6(5H)-one], for which the “[Agonist] B-arrestin2 recruitment” value in test [1] is reported as “Non-Active”. Also, the IC50 in test [2] is 0.5 to 5 µM.

On to `Cc1cccc(F)c1N1CCC(c2cc3nccnc3n(Cc3nccnc3C(F)(F)F)c2=O)C1` (centres unmarked) [compound 23, 7-(1-(2-Fluoro-6-methylphenyl)pyrrolidin-3-yl)-5-((3-(trifluoromethyl)pyrazin-2-yl)methyl) pyrido[2,3-b]pyrazin-6(5H)-one], for which the “[Agonist] B-arrestin2 recruitment” value in test [1] is recorded as “Non-Active”. The IC50 in test [2] fell in the range of 0.5 to 5 µM.

In the case of `Cc1cccc(F)c1N1CCN(c2cc3nccnc3n(Cc3nccnc3C(F)(F)F)c2=O)CC1` [compound 24, 7-(4-(2-Fluoro-6-methylphenyl)piperazin-1-yl)-5-((3-(trifluoromethyl)pyrazin-2-yl)methyl)pyrido[2,3-b]pyrazin-6(5H)-one], the “[Agonist] B-arrestin2 recruitment” value in test [1] was “Non-Active”. Besides, the IC50 in test [2] was in the range of 0.5 to 5 µM.

Broadly, the IC50 is the concentration that inhibits the measured activity by half.

The values above are taken from US20260317320A1, “C5AR1 ANTAGONISTS AND USES THEREOF” (Vanqua Bio, Inc., priority 2022, published 2026).
